Common to all, as to assay: NCI-60 cell line screen, 48 h
For experiment [1], the system named is HOP-92 NSCLC.
The test system of experiment [2] is NCI-H460 lung.
Experiment [3] relates to MOLT-4 leukemia.
Experiment [4] deals with NCI-H23 lung.
Experiment [5] relates to A549 NSCLC.
The test system of experiment [6] is SNB-19 CNS.
The subject of experiment [7] is SN12C renal.
The subject of experiment [8] is UACC-62 melanoma.
Experiment [9] concerns U251 CNS.
In experiment [10] the test system is HL-60(TB) leukemia.

“And” between values parts separate entries of the source, which are not always exact repeats. Equal values may be shown once.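 Protocol summary: plate cells (96-well), add compound at 5 concentrations, incubate 48 h, interpolate endpoints linearly. GI50 = concentration required for 50% inhibition of growth. At the TGI there is no net growth.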

For `CN(C)CCNC(=O)c1ccc(-c2nc3ccc4[nH]ncc4c3c3c2C2CCC3C2)cc1` (centres undefined), the GI50 in experiment [1] was 1.74 µM; in experiment [2] it was 1.56 µM; in [3], 1.1 µM; in experiment [4] it was 1.63 µM; in experiment [5] it was 1.65 µM; in experiment [6], 2.69 µM. For the same molecule, the GI50 in experiment [7] was 1.82 µM; in experiment [8] it was 0.898 µM; in experiment [9], 1.17 µM; in [10] it was 0.388 µM. Besides, the TGI in experiment [1] is 4.25 µM; in experiment [2] it was 4.79 µM; in experiment [3], 5.56 µM; in experiment [4] it was 5.94 µM; in [5] it was 12.8 µM; in experiment [6], 9.81 µM. The TGI in [7] stood at 6.88 µM; in [8] it was 3.72 µM; in experiment [9], 8.89 µM; in experiment [10], 2.52 µM.

Take `C#CCNC(=O)NCCCCC(NC(=O)OCc1ccccc1)C(=O)OCc1ccccc1` (centres undefined): the TGI in [1] is above 100 µM; in experiment [2] it was above 100 µM; in experiment [3] it was 51.9 µM; in experiment [4], above 100 µM; in experiment [5], above 100 µM; in [6] it was above 100 µM. The TGI was above 100 µM in [7], above 100 µM in [8], above 100 µM in experiment [9] and 35.4 µM in experiment [10].

Regarding `C=C/C(C)=C/C[C@]1(C)[C@H](C)[C@@H](OC(=O)CCC)[C@H](O)[C@@]23C(=C[C@H](OC)C[C@@H]12)[C@@H](OC(=O)CCC)O[C@H]3OC(C)=O`, the GI50 in [1] is 0.303 µM; in [2], 1.74 µM; in experiment [3], 0.348 µM; in experiment [4], 1.19 µM; in experiment [5], 1.65 µM; in experiment [6] it was 1.66 µM. The GI50 was 0.316 µM in experiment [7], 0.529 µM in experiment [8], 1.32 µM in experiment [9] and 0.228 µM in experiment [10]. Moreover, the TGI in experiment [1] was determined as 1.13 µM; in experiment [2], 3.52 µM; in [3] it was 1.55 µM; in experiment [4], 2.83 µM; in experiment [5] it was 3.62 µM; in experiment [6] it was 3.58 µM. The TGI came out at 1.4 µM in [7], 1.88 µM in [8], 2.98 µM in experiment [9] and 0.693 µM in experiment [10].

As for `CN(C)c1ccc(/C=C2\N=C(c3ccccc3)N(c3cc(C(F)(F)F)ccc3Cl)C2=O)cc1`, the GI50 in experiment [1] was above 87.1 µM; in experiment [2] it was above 100 µM; in [3], above 100 µM; in experiment [4], above 100 µM; in experiment [5], above 100 µM; in experiment [6] it was above 100 µM. The GI50 is above 100 µM in experiment [7], above 100 µM in [8], above 94.7 µM in experiment [9] and above 100 µM in experiment [10]. Further, the TGI in experiment [1], in [2], in [3], in experiment [4], in experiment [5] and in [6] was above 100 µM each time. In addition, the TGI in experiment [7], in [8], in [9] and in [10] was above 100 µM each time.

Take `O=C(Nc1ccc(-n2ccc3c(NC(=O)c4ccccc4)ncnc32)cc1)c1cccc(C(F)(F)F)c1`: the GI50 is 7.51 µM in experiment [1]; 0.0837 µM in experiment [2]; 0.493 µM in experiment [3]; 13.3 µM in experiment [4]; 0.966 µM in [5]; 2.13 µM in [6]. The GI50 is 5.27 µM in [7], 0.809 µM in experiment [8], 0.146 µM in experiment [9] and 3.02 µM in experiment [10]. Besides, the TGI in experiment [1] is 26 µM; in experiment [2] it was 12.3 µM; in experiment [3], 32.7 µM; in [4] it was 35.7 µM; in [5] it was 21.1 µM; in experiment [6], 33.4 µM. Besides, the TGI in [7] was 27.9 µM; in experiment [8] it was 11.1 µM; in [9], 13.7 µM; in [10], 36.7 µM.

Take `CC(C)(O)/C=C/C(=O)[C@](C)(O)[C@H]1[C@H](O)C[C@@]2(C)[C@@H]3CC=C4[C@@H](C[C@H](O)C(=O)C4(C)C)[C@]3(C)C(=O)C[C@]12C`: the GI50 was 0.255 µM in experiment [1]; 0.0509 µM in experiment [2]; 0.709 µM in experiment [3]; 0.462 µM in [4]; 0.224 µM in experiment [5]; 0.0476 µM in [6]. The GI50 in experiment [7] was 0.355 µM; in experiment [8], 0.0736 µM; in experiment [9] it was 0.105 µM. Also, the TGI in experiment [1] is 0.439 µM and 0.407 µM; in [2], 20.4 µM; in experiment [3], 11.8 µM; in [4], 15.5 µM; in [5], 16.5 µM; in [6], 0.349 µM and 0.951 µM. Besides, the TGI was 28 µM in experiment [7]; 0.947 µM and 2.44 µM in experiment [8]; 0.419 µM and 0.322 µM in experiment [9]; 0.687 µM and 1.68 µM in [10].

Take `O=C1OC(c2ccccc2)=N/C1=C\c1ccc(Oc2ccc(Cl)c(Cl)c2)cc1`: the TGI in experiment [1] was above 100 µM; in experiment [2] it was above 100 µM; in experiment [3], 60.6 µM; in experiment [4] it was above 100 µM; in experiment [5] it was above 100 µM; in experiment [6], above 100 µM. The TGI was above 100 µM in experiment [7], 52.3 µM in [8], 65.9 µM in experiment [9] and 56.9 µM in experiment [10].

Consider `C=C1C(=O)O[C@H]2[C@H]1CC/C(COC(=O)NCc1ccc(OC)cc1)=C\CC[C@@]1(C)O[C@@H]21`, for which the GI50 in experiment [1] was 0.559 µM; in experiment [2], 3.16 µM; in experiment [3], 0.843 µM; in experiment [4], 1.45 µM; in experiment [5], 4.28 µM; in [6] it was 3.01 µM. In addition, the GI50 in [7] was 3.4 µM; in experiment [8], 1.59 µM; in experiment [9] it was 2.65 µM; in experiment [10], 0.813 µM. The TGI in [1] is 1.83 µM; in [2] it was 18.2 µM; in [3], 2.31 µM; in experiment [4], 7.96 µM; in experiment [5], 19.2 µM; in experiment [6], 11 µM. Further, the TGI was 12.4 µM in experiment [7], 3.16 µM in experiment [8], 16.2 µM in [9] and 2.1 µM in experiment [10].

The values above are taken from PubChem BioAssay (NCI).
